According to PubChem BioAssay AID2060613 (Molecular Pharmacology Branch, DTP, NCI, 2025):
pIC50: −log10 of the molar value.

System: 233499-124-R-J3-PDC complex spheroid viability
Assay: Anticancer human tumor 233499-124-R-J3-PDC patient-derived colon adenocarcinoma cell line growth inhibition [CLK]
Conditions: for pIC50: curve of first compound; for viability, T/C: stronger effect = lower value
Outline: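 Patient-derived tumor cells grown as complex spheroids with HUVEC endothelial cells and mesenchymal stem cells, treated with drug combinations. Concentrations descend in half-log steps from near clinical Cmax, or from 10 microM if Cmax unknown.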

[1] = second compound 0.0316 µM, first compound 0.0316 µM
[2] = second compound 0.0316 µM, first compound 0.1 µM
[3] = second compound 0.0316 µM, first compound 0.316 µM
[4] = second compound 0.0316 µM, first compound 1 µM
[5] = second compound 0.0316 µM, first compound 3.16 µM
[6] = second compound 0.0316 µM, first compound 10 µM
[7] = second compound 0.1 µM, first compound 0.0316 µM
[8] = second compound 0.1 µM, first compound 0.1 µM
[9] = second compound 0.1 µM, first compound 0.316 µM
[10] = second compound 0.1 µM, first compound 1 µM
[11] = second compound 0.1 µM, first compound 3.16 µM
[12] = second compound 0.1 µM, first compound 10 µM
[13] = second compound 0.316 µM, first compound 0.0316 µM
[14] = second compound 0.316 µM, first compound 0.1 µM
[15] = second compound 0.316 µM, first compound 0.316 µM
[16] = second compound 0.316 µM, first compound 1 µM
[17] = second compound 0.316 µM, first compound 3.16 µM
[18] = second compound 0.316 µM, first compound 10 µM
[19] = second compound 1 µM, first compound 0.0316 µM
[20] = second compound 1 µM, first compound 0.1 µM
[21] = second compound 1 µM, first compound 0.316 µM
[22] = second compound 1 µM, first compound 1 µM
[23] = second compound 1 µM, first compound 3.16 µM
[24] = second compound 1 µM, first compound 10 µM
[25] = second compound 3.16 µM, first compound 0.0316 µM
[26] = second compound 3.16 µM, first compound 0.1 µM
[27] = second compound 3.16 µM, first compound 0.316 µM
[28] = second compound 3.16 µM, first compound 1 µM
[29] = second compound 3.16 µM, first compound 3.16 µM
[30] = second compound 3.16 µM, first compound 10 µM
[31] = second compound 10 µM, first compound 0.0316 µM
[32] = second compound 10 µM, first compound 0.1 µM
[33] = second compound 10 µM, first compound 0.316 µM
[34] = second compound 10 µM, first compound 1 µM
[35] = second compound 10 µM, first compound 3.16 µM
[36] = second compound 10 µM, first compound 10 µM
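Further: spheroids exposed to the drug combinations for seven days.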
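Wherever viability, T/C is given: percent viability relative to DMSO vehicle control wells taken as 100%.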

O=c1[nH]cc(F)c(=O)[nH]1 + CN1CCN(c2cc(C(=O)Nc3cc4cc(-c5cnn(C)c5)ccc4cn3)ccn2)CC1
pIC50 (second compound 0.0316 µM): 6.07 | pIC50 (second compound 0.1 µM): 6.02 | pIC50 (second compound 0.316 µM): 6.07 | pIC50 (second compound 1 µM): > 7.50 | pIC50 (second compound 3.16 µM): > 7.50 | pIC50 (second compound 10 µM): > 7.50 | viability, T/C [1]: 93% | viability, T/C [2]: 104% | viability, T/C [3]: 90.8% | viability, T/C [4]: 43.5% | viability, T/C [5]: 28.6% | viability, T/C [6]: 31.4% | viability, T/C [7]: 99.8% | viability, T/C [8]: 100% | viability, T/C [9]: 96.8% | viability, T/C [10]: 48% | viability, T/C [11]: 28.8% | viability, T/C [12]: 30.4% | viability, T/C [13]: 96.3% | viability, T/C [14]: 98.5% | viability, T/C [15]: 96.5% | viability, T/C [16]: 42% | viability, T/C [17]: 24.6% | viability, T/C [18]: 19.7% | viability, T/C [19]: 1.35% | viability, T/C [20]: 1.2% | viability, T/C [21]: 0.92% | viability, T/C [22]: 2.1% | viability, T/C [23]: 0.59% | viability, T/C [24]: 0.84% | viability, T/C [25]: 0.5% | viability, T/C [26]: 0.58% | viability, T/C [27]: 1.18% | viability, T/C [28]: 0.66% | viability, T/C [29]: 0.53% | viability, T/C [30]: 0.54% | viability, T/C [31]: 0.37% | viability, T/C [32]: 0.5% | viability, T/C [33]: 1.31% | viability, T/C [34]: 0.42% | viability, T/C [35]: 0.41% | viability, T/C [36]: 0.45%

CCCS(=O)(=O)Nc1ccc(F)c(C(=O)c2c[nH]c3ncc(-c4ccc(Cl)cc4)cc23)c1F + CN1CCN(c2cc(C(=O)Nc3cc4cc(-c5cnn(C)c5)ccc4cn3)ccn2)CC1
pIC50 (second compound 0.0316 µM): < 5.00 | pIC50 (second compound 0.1 µM): < 5.00 | pIC50 (second compound 0.316 µM): 5.09 | pIC50 (second compound 1 µM): > 7.50 | pIC50 (second compound 3.16 µM): > 7.50 | pIC50 (second compound 10 µM): > 7.50 | viability, T/C [1]: 103% | viability, T/C [2]: 98.2% | viability, T/C [3]: 101% | viability, T/C [4]: 99.8% | viability, T/C [5]: 97.2% | viability, T/C [6]: 92.4% | viability, T/C [7]: 98.5% | viability, T/C [8]: 103% | viability, T/C [9]: 103% | viability, T/C [10]: 106% | viability, T/C [11]: 109% | viability, T/C [12]: 92.2% | viability, T/C [13]: 96.7% | viability, T/C [14]: 96.9% | viability, T/C [15]: 91.8% | viability, T/C [16]: 89.3% | viability, T/C [17]: 99.9% | viability, T/C [18]: 39.5% | viability, T/C [19]: 1.29% | viability, T/C [20]: 4.3% | viability, T/C [21]: 5.03% | viability, T/C [22]: 0.45% | viability, T/C [23]: 0.8% | viability, T/C [24]: 1.4% | viability, T/C [25]: 0.42% | viability, T/C [26]: 0.62% | viability, T/C [27]: 1.12% | viability, T/C [28]: 0.53% | viability, T/C [29]: 0.63% | viability, T/C [30]: 0.92% | viability, T/C [31]: 0.24% | viability, T/C [32]: 0.32% | viability, T/C [33]: 1.24% | viability, T/C [34]: 0.33% | viability, T/C [35]: 0.36% | viability, T/C [36]: 0.85%
